# What was measured:
# mouse [1] = experiment: Observation of the animals, mouse; assay type: in vivo, mouse (male, Swiss NMRI stock)
# Description: (§1) All the experiments described below were carried out using male rats weighing from 170 to 220 g (Wistar Af stock) and male mice weighing from 18 to 23 g (Swiss NMRI stock).
# (§2) All the experiments took place in a laboratory with a constant temperature (22° ± 1° C).
# (§3) All the experiments were carried out blind (without the experimenter knowing, at the time of the tests, which animals had received the substance presumed active).
# (§4) Unless otherwise stated, 10 animals were always used per point.
# rat [2] = experiment: Observation of the animals, rat; assay type: in vivo, rat (male, Wistar Af stock)
# Description: as §1, §2, §3, §4
# rat [3] = experiment: Motor activity in the rat (actimeters with photoelectric cells); assay type: in vivo, rat (male, Wistar Af stock)
# Description: as §1
# Motor activity was determined with the aid of actimeters with photoelectric cells described by Tedeschi and Coll (J. Pharm. sci. 1964, 53, 1046-1049). A minimum of 10 animals were always used per point. They show a large increase in the motor activity of rats, which becomes significant from a dose of 32 mg/kg given orally.
# animals [4] = experiment: Test with the board containing holes; assay type: in vivo
# Description: The method and apparatus described by BOISSIER and SIMON (Physiol. Behav. 1967, 2, 444-448) were used. During these experiments 15 animals were used per batch (except that 30 were used for the control group and 30 for the dose of 64 mg/kg).
# rat [5] = experiment: Avoidance conditioning in the rat (shuttle-box); assay type: in vivo, rat (male, Wistar Af stock); details: 64 mg/kg oral, 8 animals
# Description: as §1
# The avoidance conditioning was studied in the rat placed in a shuttle-box (with 2 compartments) (of. BOISSIER and SIMON: Therapie 1968, 23, 1267-1276).
# mouse [6] = experiment: Conditioned inhibition, 4 plate test, mouse; assay type: in vivo, mouse (male, Swiss NMRI stock)
# Description: as §1
# A simple conditioned inhibition test was used, the 4 plate test (ARON an Coll, Neuropharmacology 1971, 10, 459-470).
# mouse [7] = experiment: Effects of barbiturate hypnotics, mouse; assay type: in vivo, mouse (male, Swiss NMRI stock); details: mouse, 16, 32 or 64 mg/kg oral, with pentabarbitone or barbitone sodium
# Description: as §1
# rats [8] = experiment: Test for antireserpine action, rats; assay type: in vivo, rat (male, Wistar Af stock); details: rats, 8, 16, 32 and 64 mg/kg oral; reserpine 2.5 mg/kg i.p. 4 hours before
# Description: as §1
# rats [9] = experiment: Test of anticataleptic action (prochlorperazine catalepsy); assay type: in vivo, rat (male, Wistar Af stock); details: 16 or 64 mg/kg i.p. or oral, prochlorperazine 8 mg/kg i.p., homolateral paws, Buddha or elevator test
# Description: as §1
# rat [10] = experiment: Amphetamine stereotypy test; assay type: in vivo, rat (male, Wistar Af stock); details: rat, 32, 64 or 128 mg/kg oral 60 min before amphetamine 2 mg/kg i.p.
# Description: as §1
# rat [11] = experiment: Apomorphine stereotypy test; assay type: in vivo, rat (male, Wistar Af stock); details: rat, 32, 64 or 128 mg/kg oral 60 min before apomorphine 0.5 mg/kg s.c.
# Description: as §1
# monoamine oxidase = experiment: Monoamine oxidase inhibition (tryptamine test); assay type: in vivo, rat (male, Wistar Af stock); details: rat, 64 mg/kg i.p.; tryptamine 3 mg/kg i.v.
# Description: as §1
# The dose of tryptamine given was insufficient to induce convulsions (3 mg/kg by intravenous injection).
# mouse [12] = experiment: Interaction with electric shocks; assay type: in vivo, mouse (male, Swiss NMRI stock); details: mouse, 16, 32, 64 or 128 mg/kg oral 60 min before electric shock
# Description: as §1
# [13] = system: convulsion-inducing attacks; experiment: Interaction with convulsion-inducing dose of cardiazol; assay type: in vivo; details: 64 mg/kg oral 30 min before cardiazol 160 mg/kg s.c.
# animals [14] = experiment: animal or person; assay type: in vivo, rat and mouse
# Description: an increase in the activity and alertness of animals without abnormal behaviour and particularly stereotyped movements ever appearing. Increased activity and alertness were found in both the rat and the mouse by observing the animals, measuring their motor activity and measuring their exploration of a board containing holes and the shortening of the reaction time of mice on a hot-plate. The increase is marked (according to the tests) from doses of 16 to 32 mg/kg given orally; it takes place rapidly after administration and lasts about 2 hours. These doses are far from the toxic level (ratio LD50/ED 50 approximately 20/1 in the mouse and over 10/1 in the rat);
# [15] = doses very close to lethal level
# [16] = oral or intraperitoneal, from 16 mg/kg, below toxic level
# [17] = oral or intraperitoneal, read-out: dose from which slight excitation is observed
# [18] = 16 mg/kg orally 15 min before test
# [19] = 32 mg/kg orally 15 min before test
# [20] = 64 mg/kg orally 15 min before test
# [21] = 128 mg/kg orally 15 min before test
# [22] = 16 mg/kg orally 60 min before test
# [23] = 32 mg/kg orally 60 min before test
# [24] = 64 mg/kg orally 60 min before test
# [25] = 128 mg/kg orally 60 min before test
smiles,measurement,setting,value
"CC1CC(c2ccccc2)C(c2ccccc2)C(=O)O1 (stereo not drawn) [MDTP, 6-methyl-3,4-diphenyl-3,4,5,6-tetrahydro-2-pyrone]","diameter of the pupils, rectal temperature",mouse [1]; doses below toxic level,no change in diameter of the pupils or the rectal temperature
same,"motor incoordination, abnormal or stereotyped movements",mouse [1]; doses below toxic level,not accompanied by motor incoordination or by abnormal or stereotyped movements
same,hyperthermia,mouse [1]; [15],moderate hyperthermia
same,toxic signs,mouse [1]; in vivo,"tremors, hyperreactivity to very intense stimuli, interaggressiveness and convulsive phenomena with the rear paws stretched"
same,excitation on observation,mouse [1]; [16],slight excitation is observed with increased reaction to touching or to sound stimuli
same,minimal effective dose,mouse [1]; [17],16 mg/kg
same,sexual behaviour,rat [2],An increase in sexual behaviour
same,"diameter of the pupils, rectal temperature",rat [2]; doses below toxic level,no change in diameter of the pupils or the rectal temperature
same,"motor incoordination, abnormal or stereotyped movements",rat [2]; doses below toxic level,not accompanied by motor incoordination or by abnormal or stereotyped movements
same,hyperthermia,rat [2]; [15],moderate hyperthermia
same,toxic signs,rat [2]; in vivo,"tremors, hyperreactivity to very intense stimuli, interaggressiveness and convulsive phenomena with the rear paws stretched"
same,excitation on observation,rat [2]; [16],slight excitation is observed with increased reaction to touching or to sound stimuli
same,minimal effective dose,rat [2]; [17],16 mg/kg
same,Number of bars passed over after 5 min,rat [3]; [18],131 % of control group
same,Number of bars passed over after 10 min,rat [3]; [18],135 % of control group
same,Number of bars passed over after 15 min,rat [3]; [18],148 % of control group
same,Number of bars passed over after 20 min,rat [3]; [18],145 % of control group
same,Number of bars passed over after 25 min,rat [3]; [18],144 % of control group
same,Number of bars passed over after 30 min,rat [3]; [18],133 % of control group
same,Number of bars passed over after 5 min,rat [3]; [19],186 % of control group
same,Number of bars passed over after 10 min,rat [3]; [19],184 % of control group
same,Number of bars passed over after 15 min,rat [3]; [19],135 % of control group
same,Number of bars passed over after 20 min,rat [3]; [19],138 % of control group
same,Number of bars passed over after 25 min,rat [3]; [19],155 % of control group
same,Number of bars passed over after 30 min,rat [3]; [19],161 % of control group
same,Number of bars passed over after 5 min,rat [3]; [20],155 % of control group
same,Number of bars passed over after 10 min,rat [3]; [20],181 % of control group
same,Number of bars passed over after 15 min,rat [3]; [20],178 % of control group
same,Number of bars passed over after 20 min,rat [3]; [20],200 % of control group
same,Number of bars passed over after 25 min,rat [3]; [20],186 % of control group
same,Number of bars passed over after 30 min,rat [3]; [20],195 % of control group
same,Number of bars passed over after 5 min,rat [3]; [21],210 % of control group
same,Number of bars passed over after 10 min,rat [3]; [21],215 % of control group
same,Number of bars passed over after 15 min,rat [3]; [21],209 % of control group
same,Number of bars passed over after 20 min,rat [3]; [21],217 % of control group
same,Number of bars passed over after 25 min,rat [3]; [21],215 % of control group
same,Number of bars passed over after 30 min,rat [3]; [21],201 % of control group
same,minimal effective dose,"rat [3]; oral, read-out: dose from which increase in motor activity becomes significant",32 mg/kg
same,displacements made in 5 min,animals [4]; [22],98 % of control group
same,holes explored in 5 min,animals [4]; [22],120 % of control group
same,displacements made in 5 min,animals [4]; [23],115 % of control group
same,holes explored in 5 min,animals [4]; [23],131 % of control group
same,displacements made in 5 min,animals [4]; [24],161 % of control group
same,holes explored in 5 min,animals [4]; [24],140 % of control group
same,displacements made in 5 min,animals [4]; [25],159 % of control group
same,holes explored in 5 min,animals [4]; [25],141 % of control group
same,minimal effective dose,"animals [4]; oral, read-out: dose from which increase in number of holes explored becomes significant",32 mg/kg
same,change in avoidance conditioning,rat [5],did not produce any change in conditioning
same,change in conditioned inhibition,"mouse [6]; mouse, 4, 8, 16, 32, 64 and 128 mg/kg",no change was observed in conditioned inhibition
same,performance of the animals in 4 plate test,"mouse [6]; mouse, 4 to 128 mg/kg",a slight increase in the performance of the animals
same,change in time to fall asleep and sleeping period,mouse [7],did not produce any change in the time taken to fall asleep or in the sleeping period
same,change in reserpine-induced hypothermia or palpebral ptosis,rats [8],did not produce any change in the hypothermia or palpebral ptosis
same,change in cataleptic state,rats [9],did not produce any change in the cataleptic state
same,change in amphetamine-induced stereotyped movements,rat [10],did not bring about any change in the stereotyped movements
same,change in apomorphine-induced stereotyped movements,rat [11],did not bring about any change in the sterotyped movements
same,effects of tryptamine (inhibiting effect on monoamine oxidase),monoamine oxidase,did not increase the effects of tryptamine
same,duration or form of convulsive attacks,mouse [12],did not affect either the duration or the form of the convulsive attacks
same,mortality after the attack,mouse [12],did not lead to any increase in mortality after the attack
same,latency of convulsion-inducing attacks,[13],did not reduce the latency of the convulsion-inducing attacks
same,"signs of sympathetic excitation, sleep preventing action",animals [14]; in vivo,"does not give rise to any signs of sympathetic excitation, any sleep preventing action"
same,sleep inhibiting effect,animals [14]; in vivo,does not have any sleep inhibiting effect
same,duration of increase in activity and alertness,"animals [14]; oral, rat and mouse",about 2 hours
same,minimal effective dose,"animals [14]; po, read-out: doses from which increase in activity and alertness is marked",16 to 32 mg/kg
